One test concerns the target T1, ER-α in MCF-7 cells (Homo sapiens, UniProt P03372).
T1 construct: endogenous in cells; host or cells: MCF-7
T1 sequence (P03372 1-595): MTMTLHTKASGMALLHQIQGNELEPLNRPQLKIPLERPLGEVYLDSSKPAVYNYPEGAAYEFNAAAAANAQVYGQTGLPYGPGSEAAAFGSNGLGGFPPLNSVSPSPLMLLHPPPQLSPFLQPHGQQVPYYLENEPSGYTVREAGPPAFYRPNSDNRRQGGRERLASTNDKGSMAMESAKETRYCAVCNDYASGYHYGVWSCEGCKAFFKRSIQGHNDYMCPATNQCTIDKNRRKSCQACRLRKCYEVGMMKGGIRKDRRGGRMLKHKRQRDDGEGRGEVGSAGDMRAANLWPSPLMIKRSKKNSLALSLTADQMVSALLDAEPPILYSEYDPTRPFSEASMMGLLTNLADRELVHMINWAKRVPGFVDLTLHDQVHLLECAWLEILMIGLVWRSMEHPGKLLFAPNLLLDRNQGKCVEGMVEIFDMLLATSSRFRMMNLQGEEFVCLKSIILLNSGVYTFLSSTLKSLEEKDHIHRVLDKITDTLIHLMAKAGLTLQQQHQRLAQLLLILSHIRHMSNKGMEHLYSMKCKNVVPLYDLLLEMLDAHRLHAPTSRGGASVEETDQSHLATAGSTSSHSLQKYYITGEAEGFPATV
The test is described as follows: Breast Cancer Cell ER-α In Cell Western Assay (SP1). The class given is cell-based. The settings on record: 4 or 24 hr post compound addition; for Emax: MCF7, SP1 antibody, read-out: ER-α In Cell Western Assay (SP1) Max Response; for DC50: SP1 antibody, read-out: ER-α In Cell Western Assay (SP1) IC50. The protocol:
MCF-7 cells were adjusted to a concentration of 200,000 cells per mL in RPMI containing 10% charcoal-stripped FBS and 20 mM HEPES. 16 microliters of the cell suspension (3200 cells) was added to each well of a poly-D-lysine 384 well plate, and the cells were incubated overnight to allow the cells to adhere. The following day an eleven point, serial semilog dilution of each compound was added to the cells in 16 μL at a final concentration ranging from 0.3-0.000003 μM. At 4 or 24 hr post compound addition, the cells were fixed (10% formalin in PBS) for 20 minutes. Cells were permeablized in PBS 0.1% Triton and blocked with LICOR blocking buffer (50 μl/well, 90′). The wells were then incubated overnight at 4° C. with SP1 rabbit monoclonal Ab (Thermo Scientific) diluted 1:1000 in LICOR blocking buffer/0.1% Tween-20. Wells which were treated with blocking buffer with Tween but no antibody were used as a background control. Wells were washed with 0.1% Tween-20/PBS and then incubated in goat anti-rabbit IRDye™ 800CW (LICOR Inc.; 1:10000) and DRAQ5 DNA dye (1:2000 for 2 mM stock) diluted in LICOR blocking buffer containing 0.1% Tween-20 and 0.01% SDS for 60 minutes. Cells were washed (50 μl/well, 5′ each) in 0.1% Tween-20/PBS. Plates were scanned on a LICOR Odyssey infrared imaging system. Integrated intensities in the 800 nm channel and 700 nm channel were measured to determine levels of ER and DNA respectively. Percent ER levels were determined as follows: (Integrated intensity 800 nm sample/integrated intensity 700 nm sample)/(Integrated intensity 800 nm untreated cells/integrated intensity 700 nm untreated cells)×100=% ER levels. […]

The test system of another test is MCF-7 cells. The test is described as follows: Breast Cancer Cell Viability Assays (MCF-7, CellTiter-Glo). Format: cell-based. The settings on record: 5 days' compound exposure; for IC50: Homo sapiens, MCF7, 120 h. The method, then: MCF-7 cells were adjusted to a concentration of 20,000 cells per mL in RPMI containing 10% FBS and 20 mM HEPES. 16 microliters of the cell suspension (320 cells) was added to each well of a 384 well plate, and the cells were incubated overnight to allow the cells to adhere. The following day an eleven point, serial semilog dilution of each compound was added to the cells in 16 μL at a final concentration ranging from 0.3-0.000003 μM. After 5 days' compound exposure, 16 μL of CellTiter-GLo (Promega, Madison Wis.) was added to the cells, and the relative luminescence units (RLUs) of each well were determined. CellTiter-Glo added to 32 μL of medium without cells was used to obtain a background value. The Percent viability of each sample was determined as follows: (RLU sample−RLU background/RLU untreated cells−RLU background)×100=% viability. […]
Background: In ATP-based viability assays light output follows the ATP content of the culture.

The term IC50 denotes the concentration that gives 50% inhibition. High values mean weaker potency in that assay, low ones greater potency in that assay. For `O=C(O)/C=C/c1ccc(/C(=C(\c2ccccc2)C2CCC2)c2cccc3[nH]ncc23)cc1` [Example 18, (E)-3-(4-((E)-2-Cyclobutyl-1-(1H-indazol-4-yl)-2-phenylvinyl)phenyl)acrylic acid], on ER-α in MCF-7 cells, the Emax was at least 40% and the DC50 is at most 100 nM. Further, in the test with MCF-7 cells, the “MCF7 Viability Assay Max Response” value is “++ (++ = a single % value ≧ 40%)” and the IC50 is at most 100 nM.

Regarding `CC/C(=C(/c1ccc(/C=C/C(=O)O)cc1)c1ccc2scnc2c1C#N)c1ccccc1` [Example 19, (E)-3-(4-((E)-1-(4-Cyanobenzo[d]thiazol-5-yl)-2-phenylbut-1-en-1-yl)phenyl)acrylic acid], on ER-α in MCF-7 cells, the Emax was at least 40% and the DC50 is at most 100 nM. Moreover, in the test on MCF-7 cells, the “MCF7 Viability Assay Max Response” value is “++ (++ = a single % value ≧ 40%)” and the IC50 was at most 100 nM.

With `Cc1cscc1/C(=C(\c1ccc(/C=C/C(=O)O)cc1)c1ccc2scnc2c1)C(C)C` [Example 20, (E)-3-(4-((E)-1-(Benzo[d]thiazol-5-yl)-3-methyl-2-(4-methylthiophen-3-yl)but-1-en-1-yl)phenyl)acrylic acid], on ER-α in MCF-7 cells, the Emax was at least 40% and the DC50 is at most 100 nM. In addition, in the test on MCF-7 cells, the “MCF7 Viability Assay Max Response” value is “++ (++ = a single % value ≧ 40%)” and the IC50 is at most 100 nM.

Take `N#Cc1c(/C(=C(/c2ccccc2)C2CCC2)c2ccc(/C=C/C(=O)O)cc2)ccc2scnc12` [Example 21, (E)-3-(4-((E)-1-(4-Cyanobenzo[d]thiazol-5-yl)-2-cyclobutyl-2-phenylvinyl)phenyl)acrylic acid]: on ER-α in MCF-7 cells, the Emax was at least 40% and the DC50 is at most 100 nM. In the test on MCF-7 cells, the “MCF7 Viability Assay Max Response” value was “++ (++ = a single % value ≧ 40%)” and the IC50 is at most 100 nM.

For the molecule `O=C(O)/C=C/c1ccc(/C(=C(\c2ccccc2)C2CCC2)c2cc(F)c3[nH]ncc3c2F)cc1` [Example 22, (E)-3-(4-((E)-2-Cyclobutyl-1-(4,7-difluoro-1H-indazol-5-yl)-2-phenylvinyl)phenyl)acrylic acid], on ER-α in MCF-7 cells, the Emax was at least 40% and the DC50 was over 100 nM. For the same molecule, in the test on MCF-7 cells, the “MCF7 Viability Assay Max Response” value is given as “++ (++ = a single % value ≧ 40%)” and the IC50 is over 100 nM.

Regarding `COc1ccc(/C(=C(\c2ccc(/C=C/C(=O)O)cc2)c2ccc3[nH]nc(F)c3c2)C2CCC2)cc1` [Example 23, (E)-3-(4-((E)-2-Cyclobutyl-1-(3-fluoro-1H-indazol-5-yl)-2-(4-methoxyphenyl)vinyl)phenyl)acrylic acid], on ER-α in MCF-7 cells, the Emax is at least 40% and the DC50 is at most 100 nM. In the test on MCF-7 cells, the “MCF7 Viability Assay Max Response” value was “++ (++ = a single % value ≧ 40%)” and the IC50 was at most 100 nM.

For `COc1cccc(/C(=C(\c2ccc(/C=C/C(=O)O)cc2)c2ccc3[nH]nc(F)c3c2)C2CCC2)c1` [Example 24, (E)-3-(4-((E)-2-Cyclobutyl-1-(3-fluoro-1H-indazol-5-yl)-2-(3-methoxyphenyl)vinyl)phenyl)acrylic acid], on ER-α in MCF-7 cells, the Emax was at least 40% and the DC50 is at most 100 nM. Moreover, in the test on MCF-7 cells, the “MCF7 Viability Assay Max Response” value is recorded as “++ (++ = a single % value ≧ 40%)” and the IC50 was at most 100 nM.

In the case of `O=C(O)/C=C/c1ccc(/C(=C(\c2ccccc2)C2CCC2)c2ccc3[nH]ncc3c2F)cc1` [Example 25, (E)-3-(4-((E)-2-Cyclobutyl-1-(4-fluoro-1H-indazol-5-yl)-2-phenylvinyl)phenyl)acrylic acid], at ER-α in MCF-7 cells, the Emax was at least 40% and the DC50 is at most 100 nM. In addition, in the test on MCF-7 cells, the “MCF7 Viability Assay Max Response” value is “++ (++ = a single % value ≧ 40%)” and the IC50 was at most 100 nM.

For the molecule `O=C(O)/C=C/c1ccc(/C(=C(\c2ccccc2)C2CC2)c2ccc3[nH]nc(F)c3c2)cc1` [Example 26, (E)-3-(4-((E)-2-Cyclopropyl-1-(3-fluoro-1H-indazol-5-yl)-2-phenylvinyl)phenyl)acrylic acid], at ER-α in MCF-7 cells, the Emax was at least 40% and the DC50 was at most 100 nM. Moreover, in the test with MCF-7 cells, the “MCF7 Viability Assay Max Response” value was “++ (++ = a single % value ≧ 40%)” and the IC50 was at most 100 nM.

`O=C(O)/C=C/c1ccc(/C(=C(\c2ccccc2)C2CCC2)c2ccc3[nH]c(=O)oc3c2)cc1` [Example 27, (E)-3-(4-((E)-2-Cyclobutyl-1-(2-oxo-2,3-dihydrobenzo[d]oxazol-6-yl)-2-phenylvinyl)phenyl)acrylic acid]: at ER-α in MCF-7 cells, the Emax was at least 40% and the DC50 is at most 100 nM. In the test with MCF-7 cells, the “MCF7 Viability Assay Max Response” value is reported as “++ (++ = a single % value ≧ 40%)” and the IC50 is at most 100 nM.

For the molecule `O=C(O)/C=C/c1ccc(/C(=C(\c2ccc(F)cc2Cl)C2CCC2)c2ccc3[nH]c(=O)oc3c2)cc1` [Example 28, (E)-3-(4-((E)-2-(2-Chloro-4-fluorophenyl)-2-cyclobutyl-1-(2-oxo-2,3-dihydrobenzo[d]oxazol-6-yl)vinyl)phenyl)acrylic acid], at ER-α in MCF-7 cells, the Emax was at least 40% and the DC50 is at most 100 nM. Also, in the test with MCF-7 cells, the “MCF7 Viability Assay Max Response” value is on record as “++ (++ = a single % value ≧ 40%)” and the IC50 was at most 100 nM.

Consider `Cc1ccccc1/C(=C(\c1ccc(/C=C/C(=O)O)cc1)c1ccc2[nH]nc(F)c2c1)C1CC1` [Example 29, (E)-3-(4-((E)-2-Cyclopropyl-1-(3-fluoro-1H-indazol-5-yl)-2-(o-tolyl)vinyl)phenyl)acrylic acid], for which, on ER-α in MCF-7 cells, the Emax is at least 40% and the DC50 was at most 100 nM. In the test with MCF-7 cells, the “MCF7 Viability Assay Max Response” value is listed as “++ (++ = a single % value ≧ 40%)” and the IC50 is at most 100 nM.

Take `COc1ccc(/C(=C(\c2ccc(/C=C/C(=O)O)cc2)c2ccc3[nH]nc(F)c3c2)C2CC2)cc1` [Example 30, (E)-3-(4-((E)-2-Cyclopropyl-1-(3-fluoro-1H-indazol-5-yl)-2-(4-methoxyphenyl)vinyl)phenyl)acrylic acid]: at ER-α in MCF-7 cells, the Emax is at least 40% and the DC50 is at most 100 nM. Further, in the test with MCF-7 cells, the “MCF7 Viability Assay Max Response” value is given as “++ (++ = a single % value ≧ 40%)” and the IC50 was at most 100 nM.

Take `COc1cccc(/C(=C(\c2ccc(/C=C/C(=O)O)cc2)c2ccc3[nH]nc(F)c3c2)C2CC2)c1` [Example 31, (E)-3-(4-((E)-2-Cyclopropyl-1-(3-fluoro-1H-indazol-5-yl)-2-(3-methoxyphenyl)vinyl)phenyl)acrylic acid]: at ER-α in MCF-7 cells, the Emax was at least 40% and the DC50 was at most 100 nM. For the same molecule, in the test on MCF-7 cells, the “MCF7 Viability Assay Max Response” value is reported as “++ (++ = a single % value ≧ 40%)” and the IC50 is at most 100 nM.

For the molecule `CC/C(=C(/c1ccc(/C=C/C(=O)O)cc1)c1cc(F)c2[nH]ncc2c1F)c1ccccc1` [Example 32, (E)-3-(4-((E)-1-(4,7-Difluoro-1H-indazol-5-yl)-2-phenylbut-1-en-1-yl)phenyl)acrylic acid], at ER-α in MCF-7 cells, the Emax is at least 40% and the DC50 is over 100 nM. In the test with MCF-7 cells, the “MCF7 Viability Assay Max Response” value is reported as “++ (++ = a single % value ≧ 40%)” and the IC50 was over 100 nM.

As to `O=C(O)/C=C/c1ccc(/C(=C(\c2ccccc2)C2CCC2)c2ccc3[nH]ncc3n2)cc1` [Example 33, (E)-3-(4-((E)-2-Cyclobutyl-2-phenyl-1-(1H-pyrazolo[4,3-b]pyridin-5-yl)vinyl)phenyl)acrylic acid], at ER-α in MCF-7 cells, the Emax is at least 40% and the DC50 was at most 100 nM. Moreover, in the test with MCF-7 cells, the “MCF7 Viability Assay Max Response” value was “++ (++ = a single % value ≧ 40%)” and the IC50 was at most 100 nM.

Source of the values: patent US9499538B2, “Estrogen receptor modulators and uses thereof” (Seragon Pharmaceuticals, Inc., priority 2012, dated 2016).
